Assay results as given in patent US20150159167A1, “Plants Tolerant to HPPD Inhibitor Herbicides” (Bayer CropScience AG, priority 2009, published 2015).
“And” between values parts separate entries of the source, which are not always exact repeats. Identical values can stand only once.

Columns and labels:
[1] = target: T1, Arabidopsis thaliana HPPD "SEQ ID No. 10" (Arabidopsis thaliana, UniProt P93836); experiment: HPLC assay of HPPD activity, in vitro kinetic properties; type: biochemical
T1 construct: Preparation of Synechococcus sp; Ala + 6xHis (N); made in house; host or cells: E. coli K-12 BL21 (pQE30-AtHPPD)
T1 sequence (P93836 with tags, fused parts or gaps): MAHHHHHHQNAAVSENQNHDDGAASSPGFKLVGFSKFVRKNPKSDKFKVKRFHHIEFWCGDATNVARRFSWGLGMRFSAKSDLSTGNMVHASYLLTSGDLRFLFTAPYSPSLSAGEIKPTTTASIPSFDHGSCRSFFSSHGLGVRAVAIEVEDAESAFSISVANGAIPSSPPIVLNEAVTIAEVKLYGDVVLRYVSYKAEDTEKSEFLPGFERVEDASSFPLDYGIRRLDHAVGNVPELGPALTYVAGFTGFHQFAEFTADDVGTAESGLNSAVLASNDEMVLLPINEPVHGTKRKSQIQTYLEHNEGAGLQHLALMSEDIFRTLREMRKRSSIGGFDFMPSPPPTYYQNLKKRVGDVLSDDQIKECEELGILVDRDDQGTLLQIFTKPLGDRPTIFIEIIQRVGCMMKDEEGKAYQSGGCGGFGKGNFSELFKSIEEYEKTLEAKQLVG
Procedure: Km, Vmax, and kcat values for different HPPD enzyme preparations and Ki, K1=Kon, and K−1=Koff for different HPPD inhibitors were determined using a HPLC assay for measurements of HPPD activity. […] All assays were started by the addition of HPPD enzyme to the assay mixture and stopped at a series of times between 0 and 240 s by addition of 200 μl of the reaction mixture to reaction assay tubes containing 20 μl 10% perchloric acid. Precipitated protein was pelleted by a 5 minute centrifugation at 10,000 g.
For Km and Vmax value determinations the initial rates of the HPPD reaction at different substrate concentrations were determined from plots of HGA formed versus time and fitted to the Michaelis-Menten equation for unireactant enzymes using the ID Business Solutions Ltd. (idbs.com) XLfit software suite.
In below given table 1, “Km” (Michaelis-Menten constant) means the kinetic parameter that is used to characterise an enzyme, and it is defined as the concentration of substrate that permits half maximal rate of the reaction. Km is further defined as the substrate concentration at which the reaction rate reaches half of its maximum value (Vmax/2) where Vmax has the meaning of being the maximum velocity of the reaction.
Kon=K1 equals the association rate constant of the […] binding and Koff=K−1 equals the rate constant of the enzyme-inhibitor complex dissociation. Ki defines the inhibition constant.

[2] = system: rice shoots transformed with FMP38e; experiment: Bleaching of rice shoots on MS/2 with tembotrione; type: in vivo; details: evaluation 2 weeks later
Procedure: Rice transformation was achieved using methods well known in the art. Briefly, the Agrobacterium tumefaciens mediated transformation of rice was performed using immature embryos, from the restorer line 6G4317. Briefly, panicles from donor plants were harvested 8-12 days after pollination. The lemma of the immature seed was removed. Seeds were thereafter sterilized using a NaOCl based solution and Tween. The seeds were preinduced with […]. Agrobacterium tumefaciens cells are then co-cultivated with the preinduced seeds in presence of acetosyringone for 4 days at 24° C. in the dark. Thereafter, coleoptile from embryos are removed and washed, then put on a media supplemented with phosphinothricin for 3 weeks at 28° C. under a photoperiod rhythm of 16 hours. Then the growing calli were cut off from the embryos, and transferred to fresh media containing triacillin, phosphinothricin, L-proline and copper (II) sulfate.
For each callusline and per Tembotrione concentration, 3 shoots, and randomly isolated from different callus pieces, were transferred to MS/2 with Tembotrione. As a general rule, transfer of the shoots from regeneration medium to MS/2 occurred 9 weeks after calli had been put on regeneration medium.
Cultures were incubated at 26.5° C. (16 hrs. photoperiod) and evaluation of symptoms occurred 2 weeks later.
New developing leaves of the shoots transferred have been scored on the basis of bleaching and categorized in 3 groups:
a) no bleaching b) intermediate bleaching c) complete bleaching
Within the category ‘intermediate bleaching’ a distinction has been made between shoots having new leaves showing only very little bleaching symptoms and thus tending to green leaves, and shoots with new leaves almost completely bleached.

[3] = system: T1 tobacco plants containing FMP38e (Synechococcus sp. HPPD FMP38); experiment: Glasshouse trial, herbicidal damage after spray; type: in vivo, Nicotiana tabacum; details: 7 DAT, 100 gAI/ha spray
Procedure: T0 Tobacco plants containing either the gene from Arabidopsis coding for HPPD or the gene FMP38e from Synechococcus sp. coding for FMP38 HPPD, mentioned above (Example3), were transferred to the glasshouse (28/20° C.), to develop further and produce seeds. Those seeds were harvested and put on soil (ED73 mixed with sand and osmocote Pro) to germinate in the glasshouse (28/20° C.). Three to four weeks later, plantlets were transferred to single pots containing the soil mentioned above. Two weeks later, plants of a size 4-6 cm diameter were sprayed with either • tembotrione at 100 gAI/ha prepared from a WP20 (wettable powder 20%) formulation supplemented with ammonium sulfate and methyl ester raps oil, or • isoxaflutole at 100 gAI/ha prepared from a WP20 formulation supplemented with ammonium sulfate and methyl ester raps oil, or • “blind formulation” made from a WP20 formulation without active ingredient (AI) supplemented with ammonium sulfate and methyl ester raps oil, and were then transferred to a growth chamber with adequate light conditions (20000 Lux). […]

[4] = system: T0 rice plants containing FMP38e; experiment: Rice glasshouse trial, response to tembotrione; type: in vivo; details: 100 g AI/ha, 7 DAT
Procedure: T0 rooted plantlets (either selected on phosphinothricin alone or on phosphinothricin supplemented with tembotrione) were transferred to soil in the glasshouse. Following an acclimation period, sufficiently grown plants were treated with the different HPPD inhibitor herbicides. As an example, T0 plants were sprayed with tembotrione of formulation type WP20 100 g AI/ha supplemented with ammonium sulfate and methyl ester raps oil. Seven days after the spray application, the symptoms due to the application of the herbicide were evaluated and compared the symptoms observed on wild type plants submitted to the same treatment.
The plants were classified in three categories based on the phenotype developed in response to the herbicide seven days after the treatment.

Question: `CS(=O)(=O)c1ccc(C(=O)C2C(=O)CCCC2=O)c(Cl)c1COCC(F)(F)F` [Tembotrione, 2-[2-chloro-4-(methylsulfonyl)-3-[(2,2,2,-tri-fluoroethoxy)methyl]benzoyl]-1,3-cyclo-hexanedione] was tested. Which kon ([1]; read-out: k1 (Kon)) did it give?
Answer: 230000 M⁻¹ s⁻¹

Question: What about the koff ([1]; read-out: k−1 (Koff)) of the same compound?
Answer: 0.0035 s⁻¹

Question: What about the “No of shoots completely bleached” value ([2]; 1 μM) of the same compound?
Answer: 0

Question: What about the “No of shoots with intermediate bleaching” value ([2]; 1 μM) of the same compound?
Answer: 4

Question: And the “No of shoots without bleaching” value ([2]; 1 μM)?
Answer: 38

Question: And the “No of shoots with intermediate bleaching” value ([2]; 5 μM)?
Answer: 35

Question: What about the “No of shoots without bleaching” value ([2]; 5 μM) of the same compound?
Answer: 3

Question: And the “% injury” value ([3]; line 34, one value per plant)?
Answer: 30%

Question: And the “% injury” value ([3]; line 39, one value per plant)?
Answer: 0% and 5%

Question: And the “Class I (no injuries), number of plants” value [4]?
Answer: 9

Question: And the “Class II (injury: 10-40%), number of plants” value [4]?
Answer: 8

Question: And the “Class III (injury: 41-100%), number of plants” value [4]?
Answer: 8
